# Where two headings read alike, the source gives them in different places.
# What was measured:
# [1] = mouse, plasma, 1 h
# Description: (§1) 150 ng/mL solution of SDC-TRAP-0002 in methanol was prepared using the internal standard spiking solution. This solution was used to precipitate all plasma samples in the study. 200 μL was pipetted into a 96 deepwell plate over dry ice. 10 μL of 1 mM stock in DMSO was added to a 1.5 mL microfuge tube, then 990 μL of plasma. Samples were mixed by vortex, then 50 μL of each sample was added in triplicate to a 96-well plate containing internal standard solution. This was designated the 0 hour time point sample. 250 μL of the remaining plasma sample was added to each of four 96 deepwell plates—one per time point. Samples were incubated at 37° C. with gentle shaking for 0.25, 0.5, and 1 hour. After each time point, one plate of each sample was removed from the shaker and placed on wet ice for approximately 2 minutes. 50 μL at plasma aliquots (in triplicate) were added to the deepwell plate containing internal standard solution. After the last time point was extracted, the 96 deepwell plate was vortexed, then centrifuged at 2-8° C. 150 μL of supernatant was collected and 25 μL at of water was added. Samples were mixed and analyzed by LC-MS/MS.
# (§2) 990 μL mouse plasma aliquots from a common stock were spiked with 10 μL of 1 mM stock of one of seven SDC-TRAP samples identified in the table below. Each sample was mixed and divided into 250 μL aliquots, each representing time points 0, 15 minutes, 30 minutes or 1 hour. At the prescribed time point, 3×50 μL samples were each mixed with 200 μL of methanol containing internal standard and held on dry ice until all time point samples were extracted. The samples collectively were vortex mixed for 1.5 minutes at 1500 rpm, then centrifuged at 4400 rpm for 10 minutes at 8° C.
# [2] = Tissue Distribution Data for SDC-TRAP-0056
# [3] = system: HER2; test: HER2 degradation assay with BT-474 cell line (Example 12, FACS); format: cell-based, human
# [4] = Mouse plasma stability protocol, up to 1 h (Examples 16-18); details: for % Remaining (1 h): % Remaining of parent after 1 h incubation in mouse plasma at 37° C. (10 μM); for % Remaining (1 h, 37° C.): mouse plasma
# Description: as §1, §2
SMILES,% Remaining (1 h) ([1]; 10 µM) [%],IC50 [3] [µM],% Remaining (1 h) [4] [%],also measured
"CCNC(=O)c1nnc(-c2cc(C(C)C)c(O)cc2O)n1-c1ccc(Oc2ccc(C(=O)N3CCC(COC(=O)Nc4cccc5c4CN(C4CCC(=O)NC4=O)C5=O)CC3)cc2)cc1 (centres unmarked) [SDC-TRAP-0125, (1-(4-(4-(3-(2,4-Dihydroxy-5-isopropylphenyl)-5-(ethylcarbamoyl)-4H-1,2,4-triazol-4-yl)phenoxy)benzoyl)piperidin-4-yl)methyl (2-(2,6-dioxopiperidin-3-yl)-1-oxoisoindolin-4-yl)carbamate]",99.4,–,–,–
"CC(C)c1cc(-c2nnc(O)n2-c2ccc(CN3CCN(C(=O)O[C@H]4CC[C@@]5(C)C(=CC[C@@H]6[C@@H]5CC[C@]5(C)C(c7cccnc7)=CC[C@@H]65)C4)CC3)cc2)c(O)cc1O [SDC-TRAP-0150, (3S,8R,9S,10R,13S,14S)-10,13-dimethyl-17-(pyridin-3-yl)-2,3,4,7,8,9,10,11,12,13,14,15-dodecahydro-1H-cyclopenta[a]phenanthren-3-yl 4-(4-(3-(2,4-dihydroxy-5-isopropylphenyl)-5-hydroxy-4H-1,2,4-triazol-4-yl)benzyl) piperazine-1-carboxylate]",103,–,–,% Remaining (1 h) ([1]; 10 μM): 103%
"CCNC(=O)c1nnc(-c2cc(C(C)C)c(O)cc2O)n1-c1ccc(C(=O)N(C)CC(=O)Nc2cccc3c2CN(C2CCC(=O)NC2=O)C3=O)cc1 (centres unmarked) [SDC-TRAP-0147, 5-(2,4-dihydroxy-5-isopropylphenyl)-4-(4-((2-((2-(2,6-dioxopiperidin-3-yl)-1-oxoisoindolin-4-yl)amino)-2-oxoethyl)(methyl)carbamoyl)phenyl)-N-ethyl-4H-1,2,4-triazole-3-carboxamide]",98.1,–,–,–
"CC(C)c1cc(-c2nnc(O)n2-c2ccc(CN3CCN(C(=O)COC(=O)Nc4cccc5c4CN(C4CCC(=O)NC4=O)C5=O)CC3)cc2)c(O)cc1O (centres unmarked) [SDC-TRAP-0121, 2-(4-(4-(3-(2,4-dihydroxy-5-isopropylphenyl)-5-hydroxy-4H-1,2,4-triazol-4-yl)benzyl)piperazin-1-yl)-2-oxoethyl(2-(2,6-dioxopiperidin-3-yl)-1-oxoisoindolin-4-yl)carbamate]",89.1,–,–,–
"CCNC(=O)c1nnc(-c2cc(C(C)C)c(O)cc2O)n1-c1ccc(CN2CCC(C(=O)N3CCC[C@H]3C(=O)Nc3cccc4c3CN(C3CCC(=O)NC3=O)C4=O)CC2)cc1 (stereo partly drawn) [SDC-TRAP-0164, 5-(2,4-dihydroxy-5-isopropylphenyl)-4-(4-((4-((2S)-2-((2-(2,6-dioxopiperidin-3-yl)-1-oxoisoindolin-4-yl)carbamoyl)pyrrolidine-1-carbonyl)piperidin-1-yl)methyl)phenyl)-N-ethyl-4H-1,2,4-triazole-3-carboxamide]",98.0,–,–,–
"CCc1c2c(nc3ccc(O)cc13)-c1cc3c(c(=O)n1C2)COC(=O)C3(CC)OC(=O)CN1CCN(c2ccc(-n3c(O)nnc3-c3cc(C(C)C)c(O)cc3O)cc2)CC1 (centres unmarked) [SDC-TRAP-0056, 4,11-diethyl-9-hydroxy-3,14-dioxo-3,4,12,14-tetrahydro-1H-pyrano[3′,4′:6,7]indolizino[1,2-b]quinolin-4-yl 2-(4-(4-(3-(2,4-dihydroxy-5-isopropylphenyl)-5-hydroxy-4H-1,2,4-triazol-4-yl)phenyl)piperazin-1-yl)acetate]",–,1.27,78.4,"Plasma Conc. ([2]; Time (h) 0.083): 1220 µM; Tumor Conc. ([2]; Time (h) 0.083): 6.40 nmol/g of tissue; Tumor/Plasma Ratio ([2]; Time (h) 0.083): 0.00525; Plasma Conc. ([2]; Time (h) 6): 2.06 µM; Tumor Conc. ([2]; Time (h) 6): 2.65 nmol/g of tissue; Tumor/Plasma Ratio ([2]; Time (h) 6): 1.28; Plasma Conc. ([2]; Time (h) 12): 0.382 µM; Tumor Conc. ([2]; Time (h) 12): 0.746 nmol/g of tissue; Tumor/Plasma Ratio ([2]; Time (h) 12): 1.95; Plasma Conc. ([2]; Time (h) 24): 0.0343 µM; Tumor Conc. ([2]; Time (h) 24): BQL; Plasma Conc. ([2]; Time (h) 48): BQL; Tumor Conc. ([2]; Time (h) 48): BQL; % Remaining (1 h, 37° C.) [4]: 78%"
"CCNC(=O)c1nnc(-c2cc(C(C)C)c(O)cc2O)n1-c1ccc(CN2CCC(C(=O)N(C)CCCOC(=O)Nc3cccc4c3CN(C3CCC(=O)NC3=O)C4=O)CC2)cc1 (centres unmarked) [SDC-TRAP-0231, 3-(1-(4-(3-(2,4-dihydroxy-5-isopropylphenyl)-5-(ethylcarbamoyl)-4H-1,2,4-triazol-4-yl)benzyl)-N-methylpiperidine-4-carboxamido)propyl (2-(2,6-dioxopiperidin-3-yl)-1-oxoisoindolin-4-yl)carbamate]",–,–,–,"% Remaining (1 h, 10 μM) ([1]; 10 μM): 98.3%"
"CCNC(=O)c1nnc(-c2cc(C(C)C)c(O)cc2O)n1-c1ccc2c(c1)CN(C(=O)c1ccc(S(=O)(=O)Oc3ccc4nc5c(c(CC)c4c3)Cn3c-5cc4c(c3=O)COC(=O)C4(O)CC)cc1)C2 (centres unmarked) [SDC-TRAP-0393, 4,11-diethyl-4-hydroxy-3,14-dioxo-3,4,12,14-tetrahydro-1H-pyrano[3′,4′:6,7]indolizino[1,2-b]quinolin-9-yl 4-(5-(3-(2,4-dihydroxy-5-isopropylphenyl)-5-(ethylcarbamoyl)-4H-1,2,4-triazol-4-yl)isoindoline-2-carbonyl)benzenesulfonate]",47.8,–,–,–
"CCNC(=O)c1nnc(-c2cc(C(C)C)c(O)cc2O)n1-c1ccc(CN2CCC(C(=O)N3CCC(n4cc(-c5cnc(N)c(O[C@H](C)c6c(Cl)ccc(F)c6Cl)c5)cn4)CC3)CC2)cc1 [SDC-TRAP-0134, (R)-4-(4-((4-(4-(4-(6-amino-5-(1-(2,6-dichloro-3-fluorophenyl)ethoxy)pyridin-3-yl)-1H-pyrazol-1-yl)piperidine-1-carbonyl)piperidin-1-yl)methyl)phenyl)-5-(2,4-dihydroxy-5-isopropylphenyl)-N-ethyl-4H-1,2,4-triazole-3-carboxamide]",108,–,–,–
"CCNC(=O)c1nnc(-c2cc(C(C)C)c(O)cc2O)n1-c1ccc(CN2CCC(C(=O)N[C@H](C(=O)Nc3cccc4c3CN(C3CCC(=O)NC3=O)C4=O)C(C)C)CC2)cc1 (stereo partly drawn) [SDC-TRAP-0163, 1-(4-(3-(2,4-dihydroxy-5-isopropylphenyl)-5-(ethylcarbamoyl)-4H-1,2,4-triazol-4-yl)benzyl)-N-((2S)-1-((2-(2,6-dioxopiperidin-3-yl)-1-oxoisoindolin-4-yl)amino)-3-methyl-1-oxobutan-2-yl)piperidine-4-carboxamide]",93.0,–,–,–
"CCc1c2c(nc3ccc(O)cc13)-c1cc3c(c(=O)n1C2)COC(=O)C3(CC)OC(=O)N(C)CCCCN1CCN(Cc2ccc(-n3c(O)nnc3-c3cc(C(C)C)c(O)cc3O)cc2)CC1 (centres unmarked) [SDC-TRAP-0055, 4,11-diethyl-9-hydroxy-3,14-dioxo-3,4,12,14-tetrahydro-1H-pyrano[3′,4′:6,7]indolizino[1,2-b]quinolin-4-yl (4-(4-(4-(3-(2,4-dihydroxy-5-isopropylphenyl)-5-hydroxy-4H-1,2,4-triazol-4-yl)benzyl)piperazin-1-yl)butyl)(methyl)carbamate]",103,–,–,"% Remaining (1 h, 37° C.) ([1]; 10 µM): 103%"
CCNC(=O)c1nnc(-c2cc(C(C)C)c(O)cc2O)n1-c1ccc(Oc2ccc(OC(=O)N(C)CCOC(=O)Nc3cccc4c3CN(C3CCC(=O)NC3=O)C4=O)cc2)cc1 (centres unmarked),–,2.86,51.2,–
"CCNC(=O)c1nnc(-c2cc(C(C)C)c(O)cc2O)n1-c1ccc(Oc2ccc(N(C)C(=O)Oc3ccc4nc5c(c(CC)c4c3)Cn3c-5cc4c(c3=O)COC(=O)[C@]4(O)CC)cc2)cc1 [SDC-TRAP-0145, (S)-4,11-diethyl-4-hydroxy-3,14-dioxo-3,4,12,14-tetrahydro-1H-pyrano[3′,4′:6,7]indolizino[1,2-b]quinolin-9-yl (4-(4-(3-(2,4-dihydroxy-5-isopropylphenyl)-5-(ethylcarbamoyl)-4H-1,2,4-triazol-4-yl)phenoxy)phenyl)(methyl)carbamate]",–,0.183,14.1,"% Remaining (1 h, 37° C.) [4]: 14.1%"
CCNC(=O)c1nnc(-c2cc(C(C)C)c(O)cc2O)n1-c1ccc(OC2CCN(C(=O)[C@@H]3CCCN3C(=O)Oc3ccc4nc5c(c(CC)c4c3)Cn3c-5cc4c(c3=O)COC(=O)[C@]4(O)CC)CC2)cc1 [SDC-TRAP-0209],–,1.13,67.1,"% Remaining (1 h, 37° C.) [4]: 67.1%"
"CCNC(=O)c1nnc(-c2cc(C(C)C)c(O)cc2O)n1-c1ccc(OC2CCN(C(=O)Oc3c(C)cc(COC(=O)Nc4cccc5c4CN(C4CCC(=O)NC4=O)C5=O)cc3C)CC2)cc1 (centres unmarked) [SDC-TRAP-0187, 4-((((2-(2,6-dioxopiperidin-3-yl)-1-oxoisoindolin-4-yl)carbamoyl)oxy)methyl)-2,6-dimethylphenyl 4-(4-(3-(2,4-dihydroxy-5-isopropylphenyl)-5-(ethylcarbamoyl)-4H-1,2,4-triazol-4-yl)phenoxy)piperidine-1-carboxylate]",–,0.072,102,–
"CCNC(=O)c1nnc(-c2cc(C(C)C)c(O)cc2O)n1-c1ccc(C(=O)N2CCN(C(=O)COC(=O)OC3(CC)C(=O)OCc4c3cc3n(c4=O)Cc4c-3nc3ccc(O)cc3c4CC)CC2)cc1 (centres unmarked) [SDC-TRAP-0202, 4,11-diethyl-9-hydroxy-3,14-dioxo-3,4,12,14-tetrahydro-1H-pyrano[3′,4′:6,7]indolizino[1,2-b]quinolin-4-yl (2-(4-(4-(3-(2,4-dihydroxy-5-isopropylphenyl)-5-(ethylcarbamoyl)-4H-1,2,4-triazol-4-yl)benzoyl)piperazin-1-yl)-2-oxoethyl) carbonate]",–,> 5,21.2,"% Remaining (1 h, 37° C.) [4]: 21.2%"

# Source: patent US10828315B2 (Madrigal Pharmaceuticals, Inc., priority 2013, dated 2020)
